Data reported in patent US11365196B2, “FGFR inhibitor and application thereof” (Betta Pharmaceuticals Co., Ltd., priority 2017, dated 2022).
Like-named read-outs stand apart in the source and are kept apart here.

Legend:
NCI-H1581 cells = experiment: Cell proliferation assay on NCI-H1581 (Table 7); assay type: cell-based, human; conditions: Homo sapiens
Source text: Test method: adding the appropriate volume of whole medium and the cells was suspended.

FGFR1 = FGFR1 (Homo sapiens (Human), UniProt P11362); experiment: Kinase assay Method 1, mobility shift assay; conditions: read-out: IC50(nM) value of compounds FGFR1; mobility shift assay, ATP at Km; class symbols
Sequence of FGFR1 (P11362 22-822): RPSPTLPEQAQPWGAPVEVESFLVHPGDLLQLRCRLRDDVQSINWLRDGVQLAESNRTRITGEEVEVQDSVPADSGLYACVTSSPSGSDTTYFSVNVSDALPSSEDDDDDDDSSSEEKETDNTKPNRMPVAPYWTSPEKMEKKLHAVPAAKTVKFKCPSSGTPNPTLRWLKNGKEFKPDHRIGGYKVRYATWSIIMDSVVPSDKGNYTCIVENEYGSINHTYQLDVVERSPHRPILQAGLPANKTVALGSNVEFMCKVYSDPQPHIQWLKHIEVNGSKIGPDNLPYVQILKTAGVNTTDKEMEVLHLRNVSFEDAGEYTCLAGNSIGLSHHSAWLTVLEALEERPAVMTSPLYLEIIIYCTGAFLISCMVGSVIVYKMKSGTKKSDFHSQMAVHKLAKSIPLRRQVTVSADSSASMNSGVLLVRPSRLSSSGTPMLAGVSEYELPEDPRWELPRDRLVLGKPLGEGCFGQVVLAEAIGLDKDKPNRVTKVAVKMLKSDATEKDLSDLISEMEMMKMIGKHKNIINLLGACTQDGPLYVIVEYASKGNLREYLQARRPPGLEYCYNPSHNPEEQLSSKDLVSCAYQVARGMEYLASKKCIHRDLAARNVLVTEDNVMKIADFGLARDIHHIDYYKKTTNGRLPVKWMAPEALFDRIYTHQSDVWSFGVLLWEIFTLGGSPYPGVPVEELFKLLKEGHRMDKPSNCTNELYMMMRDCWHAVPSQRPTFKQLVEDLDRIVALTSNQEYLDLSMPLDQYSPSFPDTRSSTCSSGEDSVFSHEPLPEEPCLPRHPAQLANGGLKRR
Method: Method 1: The inhibitory activity of some compounds of the present disclosure against FGFR1, FGFR2, FGFR3, FGFR4, KDR was tested by mobility shift assay (concentration of ATP is Km value).
Preparing of compounds: dilute test compounds to specific concentration using 100% DMSO

[1] = NCI-H1581, CellTiter 96 AQueous (144 hrs) or CellTiter Glo (96 hrs), class symbols, read-out: IC50(nM) value of compounds on NCI-H1581 cells
[2] = NCI-H1581, read-out: IC50(nM) value of compounds on NCI-H1581 cells

IC50 (NCI-H1581 cells; [1]) [nM] | IC50 (FGFR1) [nM] | SMILES | IC50 (NCI-H1581 cells; [2]) [nM]
1 to 10 | – | COc1cc(OC)c(Cl)c(-c2cc3cnc(Nc4ccc(N5CCN(C6CCN(C)CC6)CC5)cc4)nc3n3cnnc23)c1 [Compound 22, 6-(2-chloro-3,5-dimethoxyphenyl)-N-(4-(4-(1-methylpiperidin-4-yl)piperazin-1-yl)phenyl)-[1,2,4]triazolo[4′,3′:1,6]pyrido[2,3-d]pyrimidin-2-amine] | –
1 to 10 | < 1 | COc1cc(OC)c(Cl)c(-c2cc3cnc(Nc4ccc(N5CCN(C(=O)N(C)C)CC5)cc4)nc3n3cnnc23)c1 [Compound 107, 4-(4-((6-(2-chloro-3,5-dimethoxyphenyl)-[1,2,4]triazolo[4′,3′:1,6]pyrido[2,3-d]pyrimidin-2-yl)amino)phenyl)-N,N-dimethylpiperazine-1-carboxamide] | –
< 1 | < 1 | COc1cc(OC)c(Cl)c(-c2cc3cnc(Nc4ccc(N5CCN(C(C)C)CC5)cc4)nc3n3cnnc23)c1 [Compound 11, 6-(2-chloro-3,5-dimethoxyphenyl)-N-(4-(4-isopropylpiperazin-1-yl)phenyl)-[1,2,4]triazolo[4′,3′:1,6]pyrido[2,3-d]pyrimidin-2-amine] | –
– | – | COc1cc(OC)c(Cl)c(-c2cc3cnc(Nc4ccc(CN5CCOCC5)cc4)nc3n3cnnc23)c1 [Compound 45, 6-(2-chloro-3,5-dimethoxyphenyl)-N-(4-(morpholinomethyl)phenyl)-[1,2,4]triazolo[4′,3′:1,6]pyrido[2,3-d]pyrimidin-2-amine] | 0.9
< 1 | < 1 | COc1cc(OC)c(Cl)c(-c2cc3cnc(Nc4ccc(N5CCN(C)C(C)(C)C5)cc4)nc3n3cnnc23)c1 [Compound 26, 6-(2-chloro-3,5-dimethoxyphenyl)-N-(4-(3,3,4-trimethylpiperazin-1-yl)phenyl)-[1,2,4]triazolo[4′,3′:1,6]pyrido[2,3-d]pyrimidin-2-amine] | –
10 to 100 | – | C=CC(=O)N1C[C@@H](C)N(CCCc2nc3c(-c4c(Cl)c(OC)cc(OC)c4Cl)cc4cnc(NC)nc4n3n2)[C@@H](C)C1 [Compound 131, 1-((3S,5R)-4-(3-(4-(2,6-dichloro-3,5-dimethoxyphenyl)-8-(methylamino)-[1,2,4]triazolo[1′,5′:1,6]pyrido[2,3-d]pyrimidin-2-yl)propyl)-3,5-dimethylpiperazin-1-yl)prop-2-en-1-one] | –
< 1 | – | COc1cc(OC)c(Cl)c(-c2cc3cnc(Nc4ccc(C(=O)N5C[C@@H](C)N[C@@H](C)C5)cc4)nc3n3cnnc23)c1Cl [Compound 60, (4-((6-(2,6-dichloro-3,5-dimethoxyphenyl)-[1,2,4]triazolo[4′,3′:1,6]pyrido[2,3-d]pyrimidin-2-yl)amino)phenyl)((3S,5R)-3,5-dimethylpiperazin-1-yl)methanone] | –
> 100 | – | Cc1nc2ccc(-c3cc4cnc(Nc5ccc(N6CCOCC6)cc5)nc4n4cnnc34)c(Cl)c2[nH]1 [Compound 83, 6-(7-chloro-2-methyl-1H-benzo[d]imidazol-6-yl)-N-(4-morpholinophenyl)-[1,2,4]triazolo[4′,3′:1,6]pyrido[2,3-d]pyrimidin-2-amine] | –
1 to 10 | > 10 | C=CC(=O)Nc1ccc(Cc2nnc3c(-c4cc(OC)cc(OC)c4Cl)cc4cnc(NCCN5CCOCC5)nc4n23)cc1 [Compound 86, N-(4-((6-(2-chloro-3,5-dimethoxyphenyl)-2-((2-morpholinoethyl)amino)-[1,2,4]triazolo[4′,3′:1,6]pyrido[2,3-d]pyrimidin-9-yl)methyl)phenyl)acrylamide] | –
10 to 100 | – | C=CC(=O)N1CCN(CCc2nc3c(-c4cc(OC)cc(OC)c4Cl)cc4cnc(NC)nc4n3n2)CC1 [Compound 116, 1-(4-(2-(4-(2-chloro-3,5-dimethoxyphenyl)-8-(methylamino)-[1,2,4]triazolo[1′,5′:1,6]pyrido[2,3-d]pyrimidin-2-yl)ethyl)piperazin-1-yl)prop-2-en-1-one] | –
10 to 100 | > 10 | COc1cc(OC)c(Cl)c(-c2cc3cnc(Nc4ccc(N5CCN(C)CC5)cn4)nc3n3cnnc23)c1 [Compound 16, 6-(2-chloro-3,5-dimethoxyphenyl)-N-(5-(4-methylpiperazin-1-yl)pyridin-2-yl)-[1,2,4]triazolo[4′,3′:1,6]pyrido[2,3-d]pyrimidin-2-amine] | –
> 100 | – | COc1cc(OC)c(Cl)c(-c2cc3cnc(Nc4ccc(N5CC(=O)N6CCC[C@@H]6C5)cc4)nc3n3cnnc23)c1 [Compound 40, (R)-2-(4-((6-(2-chloro-3,5-dimethoxyphenyl)-[1,2,4]triazolo[4′,3′:1,6]pyrido[2,3-d]pyrimidin-2-yl)amino)phenyl)hexahydropyrrolo[1,2-a]pyrazin-4(1H)-one] | –
< 1 | < 1 | COc1cc(OC)c(Cl)c(-c2cc3cnc(Nc4ccc(N5CCC(N(C)C)CC5)cc4)nc3n3cnnc23)c1 [Compound 14, 6-(2-chloro-3,5-dimethoxyphenyl)-N-(4-(4-(dimethylamino)piperidin-1-yl)phenyl)[1,2,4]triazolo[4′,3′:1,6]pyrido[2,3-d]pyrimidin-2-amine] | –
1 to 10 | – | C=CC(=O)N1CCN(CCc2nc3c(-c4c(Cl)c(OC)cc(OC)c4Cl)cc4cnc(NC)nc4n3n2)CC1 [Compound 124, 1-(4-(2-(4-(2,6-dichloro-3,5-dimethoxyphenyl)-8-(methylamino)-[1,2,4]triazolo[1′,5′:1,6]pyrido[2,3-d]pyrimidin-2-yl)ethyl)piperazin-1-yl)prop-2-en-1-one] | –
– | – | COc1cc(OC)c(Cl)c(-c2cc3cnc(Nc4ccc(N5CCN6CCC[C@H]6C5)cc4)nc3n3cnnc23)c1 [Compound 25, (S)-6-(2-chloro-3,5-dimethoxyphenyl)-N-(4-(hexahydropyrrolo[1,2-a]pyrazin-2(1H)-yl)phenyl)-[1,2,4]triazolo[4′,3′:1,6]pyrido[2,3-d]pyrimidin-2-amine] | 1 to 10
– | – | COc1cc(OC)c(Cl)c(-c2cc3cnc(Nc4ccc(C(=O)N5C[C@@H](C)N[C@@H](C)C5)cc4)nc3n3cnnc23)c1 [Compound 59, (4-((6-(2-chloro-3,5-dimethoxyphenyl)-[1,2,4]triazolo[4′,3′:1,6]pyrido[2,3-d]pyrimidin-2-yl)amino)phenyl)((3 S,5R)-3,5-dimethylpiperazin-1-yl)methanone] | 1.8
– | – | COc1cc(OC)c(Cl)c(-c2cc3cnc(Nc4ccc(OCCN5CCCC5)cc4)nc3n3cnnc23)c1 [Compound 28, 6-(2-chloro-3,5-dimethoxyphenyl)-N-(4-(2-(pyrrolidin-1-yl)ethoxy)phenyl)-[1,2,4]triazolo[4′,3′:1,6]pyrido[2,3-d]pyrimidin-2-amine] | 2.9
– | – | CCN1CCC(c2ccc(Nc3ncc4cc(-c5cc6[nH]c(C)nc6cc5Cl)c5nncn5c4n3)cc2)CC1 [Compound 79, 6-(5-chloro-2-methyl-1H-benzo[d]imidazol-6-yl)-N-(4-(1-ethylpiperidin-4-yl)phenyl)-[1,2,4]triazolo[4′,3′:1,6]pyrido[2,3-d]pyrimidin-2-amine] | 11.5
1 to 10 | – | COc1cc(OC)c(Cl)c(-c2cc3cnc(Nc4ccc(C5CCN(C)CC5)cc4)nc3n3cnnc23)c1 [Compound 37, 6-(2-chloro-3,5-dimethoxyphenyl)-N-(4-(1-methylpiperidin-4-yl)phenyl)-[1,2,4]triazolo[4′,3′:1,6]pyrido[2,3-d]pyrimidin-2-amine] | –
1 to 10 | – | COc1cc(OC)c(Cl)c(-c2cc3cnc(Nc4ccc(OCCN5CCOCC5)cc4)nc3n3cnnc23)c1 [Compound 33, 6-(2-chloro-3,5-dimethoxyphenyl)-N-(4-(2-morpholinoethoxy)phenyl)-[1,2,4]triazolo[4′,3′:1,6]pyrido[2,3-d]pyrimidin-2-amine] | –
1 to 10 | – | C=CC(=O)N1CCN(CCCc2nc3c(-c4c(Cl)c(OC)cc(OC)c4Cl)cc4cnc(NCC(F)(F)F)nc4n3n2)CC1 [Compound 137, 1-(4-(3-(4-(2,6-dichloro-3,5-dimethoxyphenyl)-8-((2,2,2-trifluoroethyl)amino)-[1,2,4]triazolo[1′,5′:1,6]pyrido[2,3-d]pyrimidin-2-yl)propyl)piperazin-1-yl)prop-2-en-1-one] | –
< 1 | – | CNC1CCN(c2ccc(Nc3ncc4cc(-c5cc(OC)cc(OC)c5Cl)c5nncn5c4n3)cc2)CC1 [Compound 49, 6-(2-chloro-3,5-dimethoxyphenyl)-N-(4-(4-(methylamino)piperidin-1-yl)phenyl)-[1,2,4]triazolo[4′,3′:1,6]pyrido[2,3-d]pyrimidin-2-amine] | –
1 to 10 | – | COc1cc(OC)c(Cl)c(-c2cc3cnc(Nc4ccc(N5C[C@@H](C)N[C@@H](C)C5)c(OC)c4)nc3n3cnnc23)c1 [Compound 55, 6-(2-chloro-3,5-dimethoxyphenyl)-N-(4-((3 S,5R)-3,5-dimethylpiperazin-1-yl)-3-methoxyphenyl)-[1,2,4]triazolo[4′,3′:1,6]pyrido[2,3-d]pyrimidin-2-amine] | –
1 to 10 | – | COc1cc(OC)c(Cl)c(-c2cc3cnc(Nc4cccc(N5CCN6CCC[C@@H]6C5)c4)nc3n3cnnc23)c1 [Compound 38, (R)-6-(2-chloro-3,5-dimethoxyphenyl)-N-(3-(hexahydropyrrolo[1,2-a]pyrazin-2(1H)-yl)phenyl)-[1,2,4]triazolo[4′,3′:1,6]pyrido[2,3-d]pyrimidin-2-amine] | –
> 100 | – | CNc1ncc2cc(-c3c(Cl)c(OC)cc(OC)c3Cl)c3nc(CCCN4CCN(C(=O)C(C#N)=CC(C)(C)C)CC4)nn3c2n1 [Compound 148, 2-(4-(3-(4-(2,6-dichloro-3,5-dimethoxyphenyl)-8-(methylamino)-[1,2,4]triazolo[1′,5′:1,6]pyrido[2,3-d]pyrimidin-2-yl)propyl)piperazine-1-carbonyl)-4,4-dimethylpent-2-enenitrile] | –
10 to 100 | – | C=CC(=O)N1CCN(Cc2nc3c(-c4cc(OC)cc(OC)c4Cl)cc4cnc(NC)nc4n3n2)CC1 [Compound 117, 1-(4-((4-(2-chloro-3,5-dimethoxyphenyl)-8-(methylamino)-[1,2,4]triazolo[1′,5′:1,6]pyrido[2,3-d]pyrimidin-2-yl)methyl)piperazin-1-yl)prop-2-en-1-one] | –
